Values after ≈ are worked out from the molar mass of the structure shown.
How the values were obtained:
[1] = Water-solubility at room temperature; assay type: physicochemical; conditions: thermodynamic from solid; for solubility: determined visually by incremental addition, not at equilibrium
Procedure: The solubility of the newly synthesized SHPs (19, 20a, 21, and 22a) is much higher than that of VNP40101 M, as shown in Table 1.
For the free phosphoric acid 19 and 20a, an excess amount of the drug was placed in a glass vial containing 2.0 mL of water. The vials were shaken in a Glas Col rotary apparatus at room temperature for 24 hours. The suspension containing undissolved drug was centrifuged; the supernatant was carefully separated and analyzed by HPLC for drug concentration. […] Aqueous solutions of 19 and 20a were colorless. Similarly, the solubility of the sodium salts 21 and 22a was determined visually by adding incremental quantities of the drug to 2.0 mL of water in a glass vial. The vials were shaken at room temperature in a Glas Col rotary apparatus until the drug dissolved entirely. Additional fixed quantities of drug were added and the vials shaken until complete dissolution. This process was continued until no more drug dissolved. Compounds 21 and 22a are highly water-soluble. Because of limited drug supplies determination of the solubilities at equilibrium could not be obtained. Solubilities of >0.98 and >1.35 g/mL for 21 and 22a, respectively, were determined.

B16-F10 murine melanoma = assay: In vivo anti-tumor activity, B16-F10 murine melanoma implanted subcutaneously in C57BL/6 mice; conditions: for Tumor growth inhibition on Day 24: ip weekly for four weeks from Day 2, 80 mg/kg VNP40101M, equal molar doses of prodrugs
Procedure: (§1) The anti-tumor effects of VNP40101 M and prodrugs, including PAP-101M (19), OAP-101M (20a), PAP-Na-101M (21), and OAP-Na-101M (22a), were evaluated in both the B16-F10 murine melanoma and HTB177 human lung carcinoma models. B16-F10 melanoma cells were implanted subcutaneously (5×10^5 cells) into C57BL/6 mice, which were randomized into groups of ten immediately after tumor cell implantation (Day 0). On Day 2, mice were injected intraperitoneally with either a bolus injection of 0.1 mL PBS or drug. The treatment was carried out weekly for four consecutive weeks. Tumor measurement in three dimensions was determined once a week with the formula L×H×W/2, where L, H, and W represent length, height, and width, respectively. […] On Day 24, tumor growth was inhibited by 81% in mice treated with 80 mg/kg of VNP40101M, and by 75 to 91% in mice treated with equal molar doses of the prodrugs. […] The toxicity of these drugs in mice was mild as determined by body weight loss and animal appearance, as illustrated in FIG. 13.

[2] = tested on: HTB177 human lung carcinoma; assay: In vivo anti-tumor activity, HTB177 human lung carcinoma in nu/nu CD-1 mice
Procedure: as §1

[3] = Pharmacokinetic study in rats, single iv bolus, HPLC-UV; assay type: in vivo, female Sprague-Dawley rats; conditions: iv bolus 50 mg/kg
Procedure: Preliminary investigations of the pharmacokinetic profiles of prodrugs 19 and 20a were conducted in female Sprague-Dawley rats (10 weeks old, 250 g, Charles River). Each prodrug was administered as a single bolus intravenous (iv) injection via the jugular vein at a dose of 50 mg per kg (mpk) of body weight. Blood samples were collected on the day of dosing at the following time points: pre-dose and approximately 2, 10, 30 min, 1, 2, and 24 hr, after dosing. At each time point, approximately 0.2 mL of blood was collected in a tube containing an anticoagulant (heparin), which was immediately acidified by adding 0.005 mL of a 2.0 M citric acid solution. Then, the tube was inverted 4 to 6 times and immediately placed on ice. The blood samples were centrifuged within 30 min after blood collection at 3,000 rpm for 10-20 min at 2-8° C., and the plasma fraction was transferred to a labeled Nunc cryovial. The plasma samples were immediately frozen on dry ice and stored at −20° C. until HPLC-UV analysis. Animals were euthanized with CO2 inhalation after experiments.
Bioanalytical methods were developed to quantify these prodrugs in rat plasma using HPLC-UV at either 220 nm or 230 nm. Each plasma sample (0.1 mL) was extracted with 0.2 mL of acetonitrile. The extract was separated by centrifugation and analyzed directly by HPLC-UV. HPLC calibration standards were prepared in control rat plasma and processed as above.
Comparison to VNP101M (10 mpk of radioactive VNP101M was used in previous experiments) is difficult because of the difference in doses used in two the studies.

[4] = Stability in 100% human plasma; assay type: in vitro ADME; conditions: both sexes, 37° C.
Procedure: (§2) The stability of compounds 19, 20a and VNP40101M was evaluated in 100% human plasma (pooled mixed gender, BioChemed) at a final concentration of 50 μg/mL. Each drug (19 or 20a) was incubated in human plasma at 37° C. for a maximum of two hours. Aliquots of the incubation mixture were taken at various time points and extracted with acetonitrile. The extract was separated by centrifugation and analyzed directly by HPLC. In a similar manner, VNP40101M was incubated in human plasma at 37° C. for a maximum of one hour. At various time points, aliquots of the incubation mixture were removed and extracted with 0.5% H3PO4 in acetonitrile. The extract was separated by centrifugation and analyzed directly by HPLC. For comparison, the stability of each drug incubated in 50 mM Tris buffered saline (pH 7.6) instead of 100% human plasma was also determined.

alkaline phosphatase = assay: In vitro enzymatic bioconversion by alkaline phosphatase; assay type: in vitro ADME; conditions: bovine, alkaline phosphatase from bovine intestinal mucosa; approx. 0.055 unit/mL AP in 50 mM Tris buffered saline pH 7.6, 37° C., drug approx. 50 μg/mL
Procedure: Each drug, at a final concentration of approximately 50 μg/mL, was incubated at 37° C. in 50 mM Tris buffered saline (pH 7.6) containing approximately 0.055 unit/mL of the phosphatase enzyme.
(§3) A control sample of each drug at a final concentration of 50 μg/mL in 50 mM Tris buffered saline (pH 7.6) without AP was also incubated at 37° C. Aliquots of each solution were taken periodically; disappearance of the tested drug was determined by HPLC.

[5] = tested on: leukemia cells implanted intracranially; conditions: Finch et al. 2001; cited from earlier work
[6] = Stability in 50 mM Tris buffered saline pH 7.6 (control without AP or plasma); assay type: physicochemical; conditions: 50 mM Tris buffered saline pH 7.6, 37° C.
Procedure: as §3, §2

[7] = Aqueous stability in potassium phosphate buffers (50 mM), pH 3, 5, 7 and 9, HPLC; assay type: physicochemical; conditions: potassium phosphate buffer 50 mM
Procedure: The stabilities of PAP-101M (19), OAP-101M (20a), and VNP40101M were investigated in potassium phosphate buffers (50 mM) at pH 3, 5, 7 and 9 and at room temperature (22-25° C.). One sample was prepared at each pH for each drug; the initial drug concentration in each sample was 50 μg/mL. Each sample was analyzed by HPLC repetitively, at various time points, to determine the
concentration of the respective drug. The first-order kinetic half-lives of each drug were calculated.

[8] = room temperature, Krishna et al. 2001; cited from earlier work
[9] = pH 9, room temperature (22-25° C.), read-out: Half-life, pH 9 (converted)
[10] = female, Sprague-Dawley, rat, plasma

SMILES	solubility at 24 h [1]	solubility [1]	Tumor growth inhibition on Day 24 (B16-F10 murine melanoma)	Anti-tumor effect in HTB177 human lung carcinoma (FIGS. 14 and 15) [2]	half-life at 50 μg/mL [4]	half-life at 50 μg/mL (alkaline phosphatase)	half-life at 50 μg/mL [7, 9]	further results
CN(Cc1ccc(OP(=O)([O-])[O-])cc1)C(=O)N(N(CCCl)S(C)(=O)=O)S(C)(=O)=O.[Na+].[Na+] [PAP-Na-101M (21), Phosphoric acid 4-{N-[1,2-bis(methylsulfonyl)-2-(2-chloroethyl)-hydrazinylcarbonyl]-N-methylaminomethyl}-phenyl ester disodium salt]	> 980 mg/mL	> 980 mg/mL						
CN(Cc1ccccc1OP(=O)([O-])[O-])C(=O)N(N(CCCl)S(C)(=O)=O)S(C)(=O)=O.[Na+].[Na+] [OAP-Na-101M (22a), Phosphoric acid 2-{N-[1,2-bis(methylsulfonyl)-2-(2-chloroethyl)-hydrazinylcarbonyl]-N-methylaminomethyl}-phenyl ester disodium salt]	> 1350 mg/mL	> 1350 mg/mL	89.5%	holdout promise				
CN(Cc1ccc(OP(=O)(O)O)cc1)C(=O)N(N(CCCl)S(C)(=O)=O)S(C)(=O)=O [PAP-101M (19), Phosphoric acid mono-{4-{N-[1,2-bis(methylsulfonyl)-2-(2-chloroethyl)-hydrazinylcarbonyl]-N-methylaminomethyl}-phenyl} ester]	293 mg/mL (≈ 593 mM)				34.3 min	21.1 min		Pharmacokinetic determination in rat plasma (in words) [3]: fast conversion or clearance
CNC(=O)N(N(CCCl)S(C)(=O)=O)S(C)(=O)=O [VNP40101M, 1,2-Bis(methylsulfonyl)-1-(2-chloroethyl)-2-(methylaminocarbonyl) hydrazine]			81%		14.5 min		0.00479 days	Log cell kill [5]: > 6.54 log cell kill; half-life at 50 μg/mL [6]: 20.5 min; half-life at 50 μg/mL ([7]; pH 5, room temperature (22-25° C.), read-out: Half-life, pH 5 (converted)): 118 days; half-life at 50 μg/mL ([7]; pH 7, room temperature (22-25° C.), read-out: Half-life, pH 7 (converted)): 0.508 days; Water-solubility [8]: 0.66 mg/mL
CN(Cc1ccccc1OP(=O)(O)O)C(=O)N(N(CCCl)S(C)(=O)=O)S(C)(=O)=O [OAP-101M (20a), Phosphoric acid mono-{2-{N-[1,2-bis(methylsulfonyl)-2-(2-chloroethyl)-hydrazinylcarbonyl]-N-methylaminomethyl}-phenyl} ester]	46 mg/mL (≈ 93.1 mM)		91%	holdout promise	53.3 min	29 min	171 days	Survival of tumor-bearing mice (FIG. 12) (B16-F10 murine melanoma; B16-F10 tumor-bearing mice, versus other drugs): survived longer; half-life ([3]; female, Sprague-Dawley, rat, plasma, iv, 50 mg/kg): ~14 min; AUC [3, 10]: 21900 ng·h/mL; Cmax [3, 10]: 239 µg/mL; clearance [3, 10]: 37.8 mL/min/kg; Vd ([3]; female, Sprague-Dawley, rat, plasma, read-out: Vss): 0.146 L/kg

Reference: patent US6855695B2, “Water-soluble SHPs as novel alkylating agents” (Vion Pharmaceuticals, Inc., priority 2003, dated 2005)
